Publication PMC9861386, “N-Heterocyclic Carbene-Iridium Complexes as Photosensitizers for In Vitro Photodynamic Therapy to Trigger Non-Apoptotic Cell Death in Cancer Cells” (Molecules, 2023)
Like-named read-outs stand apart in the source and are kept apart here.

Key:
NIH3T3 = assay: MTT cytotoxicity, 48 h; type: cell-based, murine
Protocol: (§1) The in vitro cytotoxicity of iridium(III) complexes 4a–4g was first evaluated against cancer cell lines PC-3 (human prostate) and T24 (human bladder) and the non-cancerous NIH-3T3 cell line (murine fibroblasts) using colorimetric MTT tests after 48 h of treatment. The dimeric iridium precursor [IrCl(ppy)2]2 was used as reference and the results are summarized in Table S1 (Supplementary Materials) in the supporting information file. […] The complexes were also evaluated for their cytotoxicity towards healthy NIH-3T3 cells, giving access to the selectivity index (SI). […] No linear correlation between lipophilicity and anti-cancer activity was found for the iridium(III) complexes 4a–4g. For the following biological studies, we focused on the C1 series.
(§2) Table S1. Cytotoxic activity of iridium(III) NHC complexes 4a−4g expressed as GI50 (μM) values towards selected cancer and normal cell lines as determined by MTT assay (48 h).a Complex PC-3 T24 NIH3T3 SI (PC-3) SI (T24) […]
(§3) a GI50 values correspond to the concentration of complexes causing 50 % inhibition of cell growth.
(§4) Data were obtained from three independent experiments.
(§5) The cytotoxic effects of the NHC precursors, the imidazolium salts, which represents the potential hydrolysis and/or degradation products of the complexes, have been published before [SI-1, SI-2]. […]

T24 = assay: MTT cytotoxicity, 48 h; type: cell-based, human; conditions: for GI50: MTT; for SI (T24): NIH3T3 vs T24
Protocol: as §1, §2, §3, §4, §5

PC-3 = assay: MTT cytotoxicity, 48 h; type: cell-based, human; conditions: for GI50: MTT; for SI (PC-3): NIH3T3 vs PC-3
Protocol: as §1, §2, §3, §4, §5

MC3T3 osteoblasts = assay: MTT cell viability, 72 h, dark or 458 nm irradiation; type: cell-based, murine
Protocol: (§6) For all biology experiments, the compounds were solubilized in DMSO to reach a final fixed concentration equal to 0.1% v/v to avoid cytotoxicity caused by DMSO [89]. The results are normalized to controls (0.1% v/v DMSO). Depending on the cell type, approximatively 1000 to 10,000 cells/cm^2 were seeded in 48-well plates for MTT, ATP and GSH assays and 60 mm Petri dishes for Western blots. Cells were allowed to attach overnight and then incubated for 4 h with the different complexes (in the dark), then irradiated for 10 min, followed by an incubation in the dark up to 72 h.
(§7) Irradiation was conducted using an in-house device: a series of blue light LEDs selected according to the absorption spectra of the compounds at a 458 nm wavelength with an emitted power of 9.6 watts. The absorbed energy, or irradiance, was measured at 458 nm with a Thorlabs Optical Power Meter PM100A at 5 and 10 cm distance between the cell layer and the light source and expressed as mW/cm^2.
(§8) A tetrazolium-based MTT reagent (3-(4,5-dimethylthiazol-2-yl)-2,5-diphenyltetrazolium bromide) was used to determine cell viability, as previously described. After 72 h of treatment at 37 °C and 5% CO2, cells were incubated with 25 μL MTT solution (5 mg/mL; Sigma-Aldrich) for 4 h. After solubilization with 500 μL of lysis buffer (DMSO), formazan was quantified by spectrophotometry with a microplate reader at 570 nm absorbance (ClarioSTAR, BMG LabTech, Champigny-sur-Marne, France). GI50 values corresponding to the concentration that caused 50% inhibition of cell proliferation were calculated from dose–response curves obtained by nonlinear regression analysis. All results were calculated from data obtained in at least three independent experiments.

NIH-3T3 fibroblasts = assay: as above; type: cell-based, murine; conditions: for GI50: 72 h, MTT; for PI NIH-3T3: GI50 non-irradiated / GI50 irradiated
Protocol: as §6, §7, §8

HeLa cervix cancer cells = assay: as above; type: cell-based, human; conditions: for GI50: 72 h, MTT; for PI HeLa: GI50 non-irradiated / GI50 irradiated; for SI vs MC3T3, HeLa Blue / SI vs NIH, HeLa Blue: blue light; for SI vs MC3T3, HeLa Blue / SI vs MC3T3, HeLa Dark: GI50 MC3T3 / GI50 HeLa; for SI vs NIH, HeLa Blue / SI vs NIH, HeLa Dark: GI50 NIH-3T3 / GI50 HeLa
Protocol: as §6, §7, §8

[1] = tested on: PC-3 prostate cancer cells; assay: as above; type: cell-based, human; conditions: for GI50: 72 h, MTT; for PI PC-3: GI50 non-irradiated / GI50 irradiated; for SI vs MC3T3, PC-3 Blue / SI vs NIH, PC-3 Blue: blue light; for SI vs MC3T3, PC-3 Blue / SI vs MC3T3, PC-3 Dark: GI50 MC3T3 / GI50 PC-3; for SI vs NIH, PC-3 Blue / SI vs NIH, PC-3 Dark: GI50 NIH-3T3 / GI50 PC-3
Protocol: as §6, §7, §8

[2] = tested on: MCF7/FasR breast cancer cells; assay: as above; type: cell-based, human; conditions: for GI50: 72 h, MTT; for PI MCF7: GI50 non-irradiated / GI50 irradiated; for SI vs MC3T3, MCF7 Blue / SI vs NIH, MCF7 Blue: blue light; for SI vs MC3T3, MCF7 Blue / SI vs MC3T3, MCF7 Dark: GI50 MC3T3 / GI50 MCF7; for SI vs NIH, MCF7 Blue / SI vs NIH, MCF7 Dark: GI50 NIH-3T3 / GI50 MCF7
Protocol: as §6, §7, §8

[3] = 458 nm irradiation 10 min, read-out: GI50 MC3T3 Blue
[4] = dark, read-out: GI50 MC3T3 Dark
[5] = 458 nm irradiation 10 min, read-out: GI50 NIH-3T3 Blue
[6] = dark, read-out: GI50 NIH-3T3 Dark
[7] = 458 nm irradiation 10 min, read-out: GI50 HeLa Blue
[8] = 458 nm irradiation 10 min, read-out: GI50 PC-3 Blue
[9] = 458 nm irradiation 10 min, read-out: GI50 MCF7 Blue

CC(C)C[n+]1ccn2[c]1[Ir-3]13([c]4ccccc4-c4cccc[n+]41)([c]1ccccc1-c1cccc[n+]13)[c]1n(cc[n+]1CC(C)C)C2.F[P-](F)(F)(F)(F)F [Complex 4b]
GI50 (NIH3T3): 3500 nM
GI50 (T24): 380 nM
SI (T24) (T24): 9.2
GI50 (PC-3): 510 nM
SI (PC-3) (PC-3): 6.9
GI50 (MC3T3 osteoblasts; [3]): 704 nM
GI50 (MC3T3 osteoblasts; [4]): 979 nM
GI50 (NIH-3T3 fibroblasts; [5]): 1520 nM
PI NIH-3T3 (NIH-3T3 fibroblasts): 1.3
GI50 (NIH-3T3 fibroblasts; [6]): 1950 nM
GI50 (HeLa cervix cancer cells; [7]): 294 nM
PI HeLa (HeLa cervix cancer cells): 2.1
SI vs MC3T3, HeLa Blue (HeLa cervix cancer cells): 2.4
SI vs NIH, HeLa Blue (HeLa cervix cancer cells): 5.2
GI50 (HeLa cervix cancer cells; dark, read-out: GI50 HeLa Dark): 625 nM
SI vs MC3T3, HeLa Dark (HeLa cervix cancer cells; dark): 1.6
SI vs NIH, HeLa Dark (HeLa cervix cancer cells; dark): 3.1
GI50 [1, 8]: 71 nM
PI PC-3 [1]: 3.6
SI vs MC3T3, PC-3 Blue [1]: 9.9
SI vs NIH, PC-3 Blue [1]: 21.4
GI50 ([1]; dark, read-out: GI50 PC-3 Dark): 257 nM
SI vs MC3T3, PC-3 Dark ([1]; dark): 3.8
SI vs NIH, PC-3 Dark ([1]; dark): 7.6
GI50 [2, 9]: 53 nM
PI MCF7 [2]: 4.0
SI vs MC3T3, MCF7 Blue [2]: 13.3
SI vs NIH, MCF7 Blue [2]: 28.7
GI50 ([2]; dark, read-out: GI50 MCF7 Dark): 211 nM
SI vs MC3T3, MCF7 Dark ([2]; dark): 4.6
SI vs NIH, MCF7 Dark ([2]; dark): 9.2

F[P-](F)(F)(F)(F)F.c1ccc(C[n+]2ccn3[c]2[Ir-3]24([c]5ccccc5-c5cccc[n+]52)([c]2ccccc2-c2cccc[n+]24)[c]2n(cc[n+]2Cc2ccccc2)C3)cc1 [Complex 4c]
GI50 (NIH3T3): 7100 nM
GI50 (T24): 430 nM
SI (T24) (T24): 16.5
GI50 (PC-3): 410 nM
SI (PC-3) (PC-3): 17.3
GI50 (MC3T3 osteoblasts; [3]): 1330 nM
GI50 (MC3T3 osteoblasts; [4]): 1160 nM
GI50 (NIH-3T3 fibroblasts; [5]): 2670 nM
PI NIH-3T3 (NIH-3T3 fibroblasts): 1.0
GI50 (NIH-3T3 fibroblasts; [6]): 2730 nM
GI50 (HeLa cervix cancer cells; [7]): 275 nM
PI HeLa (HeLa cervix cancer cells): 1.8
SI vs MC3T3, HeLa Blue (HeLa cervix cancer cells): 4.8
SI vs NIH, HeLa Blue (HeLa cervix cancer cells): 9.7
GI50 (HeLa cervix cancer cells; dark, read-out: GI50 HeLa Dark): 494 nM
SI vs MC3T3, HeLa Dark (HeLa cervix cancer cells; dark): 2.3
SI vs NIH, HeLa Dark (HeLa cervix cancer cells; dark): 5.5
GI50 [1, 8]: 116 nM
PI PC-3 [1]: 2.9
SI vs MC3T3, PC-3 Blue [1]: 11.5
SI vs NIH, PC-3 Blue [1]: 23.0
GI50 ([1]; dark, read-out: GI50 PC-3 Dark): 336 nM
SI vs MC3T3, PC-3 Dark ([1]; dark): 3.5
SI vs NIH, PC-3 Dark ([1]; dark): 8.1
GI50 [2, 9]: 61 nM
PI MCF7 [2]: 4.1
SI vs MC3T3, MCF7 Blue [2]: 21.8
SI vs NIH, MCF7 Blue [2]: 43.8
GI50 ([2]; dark, read-out: GI50 MCF7 Dark): 248 nM
SI vs MC3T3, MCF7 Dark ([2]; dark): 4.7
SI vs NIH, MCF7 Dark ([2]; dark): 11.0

CC(C)[n+]1ccn2[c]1[Ir-3]13([c]4ccccc4-c4cccc[n+]41)([c]1ccccc1-c1cccc[n+]13)[c]1n(cc[n+]1C(C)C)C2.F[P-](F)(F)(F)(F)F [Complex 4a]
GI50 (NIH3T3): 3300 nM
GI50 (T24): 310 nM
SI (T24) (T24): 10.6
GI50 (PC-3): 480 nM
SI (PC-3) (PC-3): 6.9
GI50 (MC3T3 osteoblasts; [3]): 1740 nM
GI50 (MC3T3 osteoblasts; [4]): 2460 nM
GI50 (NIH-3T3 fibroblasts; [5]): 2790 nM
PI NIH-3T3 (NIH-3T3 fibroblasts): 1.3
GI50 (NIH-3T3 fibroblasts; [6]): 3670 nM
GI50 (HeLa cervix cancer cells; [7]): 525 nM
PI HeLa (HeLa cervix cancer cells): 2.5
SI vs MC3T3, HeLa Blue (HeLa cervix cancer cells): 3.3
SI vs NIH, HeLa Blue (HeLa cervix cancer cells): 5.3
GI50 (HeLa cervix cancer cells; dark, read-out: GI50 HeLa Dark): 1290 nM
SI vs MC3T3, HeLa Dark (HeLa cervix cancer cells; dark): 1.9
SI vs NIH, HeLa Dark (HeLa cervix cancer cells; dark): 2.8
GI50 [1, 8]: 57 nM
PI PC-3 [1]: 4.1
SI vs MC3T3, PC-3 Blue [1]: 30.5
SI vs NIH, PC-3 Blue [1]: 48.9
GI50 ([1]; dark, read-out: GI50 PC-3 Dark): 233 nM
SI vs MC3T3, PC-3 Dark ([1]; dark): 10.6
SI vs NIH, PC-3 Dark ([1]; dark): 15.8
GI50 [2, 9]: 50 nM
PI MCF7 [2]: 4.3
SI vs MC3T3, MCF7 Blue [2]: 34.8
SI vs NIH, MCF7 Blue [2]: 55.8
GI50 ([2]; dark, read-out: GI50 MCF7 Dark): 213 nM
SI vs MC3T3, MCF7 Dark ([2]; dark): 11.5
SI vs NIH, MCF7 Dark ([2]; dark): 17.2

CSc1ccc(-[n+]2ccn3[c]2[Ir-3]24([c]5ccccc5-c5cccc[n+]52)([c]2ccccc2-c2cccc[n+]24)[c]2n(cc[n+]2-c2ccc(SC)cc2)C3)cc1.F[P-](F)(F)(F)(F)F [Complex 4d]
GI50 (NIH3T3): 8500 nM
GI50 (T24): 950 nM
SI (T24) (T24): 8.9
GI50 (PC-3): 710 nM
SI (PC-3) (PC-3): 12.0
GI50 (MC3T3 osteoblasts; [3]): 1800 nM
GI50 (MC3T3 osteoblasts; [4]): 2080 nM
GI50 (NIH-3T3 fibroblasts; [5]): 2780 nM
PI NIH-3T3 (NIH-3T3 fibroblasts): 0.8
GI50 (NIH-3T3 fibroblasts; [6]): 2330 nM
GI50 (HeLa cervix cancer cells; [7]): 817 nM
PI HeLa (HeLa cervix cancer cells): 1.9
SI vs MC3T3, HeLa Blue (HeLa cervix cancer cells): 2.2
SI vs NIH, HeLa Blue (HeLa cervix cancer cells): 3.4
GI50 (HeLa cervix cancer cells; dark, read-out: GI50 HeLa Dark): 1540 nM
SI vs MC3T3, HeLa Dark (HeLa cervix cancer cells; dark): 1.4
SI vs NIH, HeLa Dark (HeLa cervix cancer cells; dark): 1.5
GI50 [1, 8]: 157 nM
PI PC-3 [1]: 3.2
SI vs MC3T3, PC-3 Blue [1]: 11.5
SI vs NIH, PC-3 Blue [1]: 17.7
GI50 ([1]; dark, read-out: GI50 PC-3 Dark): 509 nM
SI vs MC3T3, PC-3 Dark ([1]; dark): 4.1
SI vs NIH, PC-3 Dark ([1]; dark): 4.6
GI50 [2, 9]: 117 nM
PI MCF7 [2]: 3.1
SI vs MC3T3, MCF7 Blue [2]: 15.4
SI vs NIH, MCF7 Blue [2]: 23.8
GI50 ([2]; dark, read-out: GI50 MCF7 Dark): 365 nM
SI vs MC3T3, MCF7 Dark ([2]; dark): 5.7
SI vs NIH, MCF7 Dark ([2]; dark): 6.4
